For the assay, the system named is L1210 leukemia ip in BDF1 mice, survival T/C. In words: NCI In Vivo Anticancer Drug Screen. Data for tumor model L1210 Leukemia (intraperitoneal) in B6D2F1 (BDF1) mice. The note with it: endpoint: mean survival time, higher = longer survival. Put shortly: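 Ratio derived from survival: compound-dosed mice over vehicle-dosed mice, all bearing a transplantable tumor.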

Where [1] appears, read: dose: 100.0 mg/kg/injection, schedule: Q01DX009 (ip), vehicle: saline.
[2] abbreviates: dose: 200.0 mg/kg/injection, schedule: Q01DX009 (ip), vehicle: saline.
The mark [3] stands for this setting: dose: 100.0 mg/kg/injection, schedule: Q04DX002 (ip), vehicle: Klucel (hydroxypropylcellulose) (HPC).
Where [4] appears, read: dose: 200.0 mg/kg/injection, schedule: Q04DX002 (ip), vehicle: Klucel (hydroxypropylcellulose) (HPC).
[5] abbreviates: dose: 400.0 mg/kg/injection, schedule: Q04DX002 (ip), vehicle: Klucel (hydroxypropylcellulose) (HPC).
Where [6] appears, read: dose: 100.0 mg/kg/injection, schedule: Q04DX003 (ip), vehicle: Klucel (hydroxypropylcellulose) (HPC).
Where [7] appears, read: dose: 200.0 mg/kg/injection, schedule: Q04DX003 (ip), vehicle: Klucel (hydroxypropylcellulose) (HPC).
Setting [8] is: dose: 400.0 mg/kg/injection, schedule: Q04DX003 (ip), vehicle: Klucel (hydroxypropylcellulose) (HPC).
The mark [9] stands for this setting: dose: 100.0 mg/kg/injection, schedule: Q01DX001 (ip), vehicle: carboxymethylcellulose (CMC).
The mark [10] stands for this setting: dose: 200.0 mg/kg/injection, schedule: Q01DX001 (ip), vehicle: carboxymethylcellulose (CMC).
Setting [11] is: dose: 400.0 mg/kg/injection, schedule: Q01DX001 (ip), vehicle: carboxymethylcellulose (CMC).
The mark [12] stands for this setting: dose: 100.0 mg/kg/injection, schedule: Q04DX003 (ip), vehicle: saline with Tween-80.
The mark [13] stands for this setting: dose: 200.0 mg/kg/injection, schedule: Q04DX003 (ip), vehicle: saline with Tween-80.
The mark [14] stands for this setting: dose: 400.0 mg/kg/injection, schedule: Q04DX003 (ip), vehicle: saline with Tween-80.
Setting [15] is: dose: 100.0 mg/kg/injection, schedule: Q04DX003 (ip), vehicle: saline.
[16] abbreviates: dose: 200.0 mg/kg/injection, schedule: Q04DX003 (ip), vehicle: saline.
[17] abbreviates: dose: 100.0 mg/kg/injection, schedule: Q04DX002 (ip), vehicle: saline with Tween-80.
[18] abbreviates: dose: 200.0 mg/kg/injection, schedule: Q04DX002 (ip), vehicle: saline with Tween-80.
Where [19] appears, read: dose: 400.0 mg/kg/injection, schedule: Q04DX002 (ip), vehicle: saline with Tween-80.
[20] abbreviates: dose: 100.0 mg/kg/injection, schedule: Q01DX009 (ip), vehicle: saline with Tween-80.
Where [21] appears, read: dose: 100.0 mg/kg/injection, schedule: Q04DX002 (ip), vehicle: other.
Setting [22] is: dose: 400.0 mg/kg/injection, schedule: Q04DX002 (ip), vehicle: other.

T/C data for 20 compounds are collected here from PubChem BioAssay AID248 (DTP/NCI, 2004).

Where “and” joins values, the source holds several entries; their conditions need not be identical. Equal values may be shown once. Toxic doses and inconclusive results are not listed.

With `COc1cc(Br)c(CC(=O)c2cn(C(=O)Cc3cc(OC)c(OC)cc3Br)c3ccc(Br)cc23)cc1OC`, the T/C by setting is: (dose: 50.0 mg/kg/injection, schedule: Q01DX001 (ip), vehicle: saline) 106 % of control; (dose: 100.0 mg/kg/injection, schedule: Q01DX001 (ip), vehicle: saline) 96 % of control; (dose: 200.0 mg/kg/injection, schedule: Q01DX001 (ip), vehicle: saline) 102 % of control; (dose: 400.0 mg/kg/injection, schedule: Q01DX001 (ip), vehicle: saline) 96 % of control.
As for `CC1CC(C(C)(C)C)CCC1S` (configuration not stated), the T/C by setting is: under setting [1], 95 % of control; under setting [2], 88 % of control.
With `c1ccc(-c2cc(-c3ccccc3)[o+]c(-c3ccccc3)c2)cc1`, the T/C reads like this: under setting [3], 93 % of control; under setting [4], 96 % of control; under setting [5], 90 % of control.
On to `Cc1cc(O)c(N=Nc2ccccc2)cc1C`, for which the T/C was 102 % of control (dose: 100.0 mg/kg/injection, schedule: Q01DX009 (ip), vehicle: Klucel (hydroxypropylcellulose) (HPC)); 101 % of control under setting [6]; 96 % of control (dose: 200.0 mg/kg/injection, schedule: Q01DX009 (ip), vehicle: Klucel (hydroxypropylcellulose) (HPC)); 96 % of control under setting [7]; 96 % of control (dose: 400.0 mg/kg/injection, schedule: Q01DX009 (ip), vehicle: Klucel (hydroxypropylcellulose) (HPC)); 92 % of control under setting [8].
For `Cc1c(C(=O)O)nnn1-c1ccccc1`, the T/C is 97 % of control (dose: 75.0 mg/kg/injection, schedule: Q01DX001 (ip), vehicle: saline) and 96 % of control (dose: 150.0 mg/kg/injection, schedule: Q01DX001 (ip), vehicle: saline).
As to `CCOC(=O)/C(C#N)=C1/C=C(N)CCC1`, the T/C was 98 % of control under setting [9], 94 % of control under setting [10] and 100 % of control under setting [11].
Consider `c1ccc(COc2ccc(OCc3ccccc3)cc2)cc1`, for which the T/C runs as follows: (dose: 50.0 mg/kg/injection, schedule: Q01DX009 (ip), vehicle: saline) 93 % of control; under setting [1], 98 % of control; under setting [6], 87 % of control; under setting [2], 93 % of control; under setting [7], 105 % of control; under setting [8], 94 % of control.
For `CC(=O)CC(=O)CF.CC(=O)CC(=O)CF.[Cu]`, the T/C is 90 % of control (dose: 12.0 mg/kg/injection, schedule: Q01DX001 (ip), vehicle: saline) and 107 % of control (dose: 25.0 mg/kg/injection, schedule: Q01DX001 (ip), vehicle: saline).
Regarding `O=C(O)CCCN1C(=O)C2C3CCC(C3)C2C1=O` (configuration not stated), the T/C was 103 % of control under setting [12], 98 % of control under setting [13] and 107 % of control under setting [14].
Take `Cc1n[nH]c(=S)n1C`: the T/C was 108 % of control under setting [15] and 113 % of control under setting [16].
Regarding `CCCCN(C(C)=O)c1nnc(NC(C)=O)s1`, the T/C runs as follows: under setting [17], 102 % of control; under setting [18], 98 % of control; under setting [19], 98 % of control.
With `CC(=O)c1ccc(OC(=O)Oc2ccc(C(C)=O)cc2)cc1`, the T/C was 93 % of control under setting [9], 101 % of control under setting [10] and 93 % of control under setting [11].
`COc1ccc(OC)c(NC(=S)NC(=O)c2ccc(Cl)cc2Cl)c1`: the T/C is, setting by setting: (dose: 100.0 mg/kg/injection, schedule: Q01DX001 (ip), vehicle: saline with Tween-80) 89 % of control; under setting [20], 100 % of control and 102 % of control; under setting [17], 93 % of control and 100 % of control; under setting [12], 105 % of control; (dose: 200.0 mg/kg/injection, schedule: Q01DX001 (ip), vehicle: saline with Tween-80) 86 % of control; (dose: 200.0 mg/kg/injection, schedule: Q01DX009 (ip), vehicle: saline with Tween-80) 96 % of control and 99 % of control. Also, the T/C is, setting by setting: under setting [18], 106 % of control and 107 % of control; under setting [13], 92 % of control; (dose: 400.0 mg/kg/injection, schedule: Q01DX001 (ip), vehicle: saline with Tween-80) 96 % of control; (dose: 400.0 mg/kg/injection, schedule: Q01DX009 (ip), vehicle: saline with Tween-80) 89 % of control; under setting [19], 93 % of control; under setting [14], 95 % of control.
Turning to `COC(=O)c1ccc(Cn2cnc3ncnc(Cl)c32)cc1`, the T/C was 92 % of control under setting [6], 91 % of control under setting [7] and 105 % of control under setting [8].
For `Oc1ccc(Br)cc1C=NC1CCCCC1`, the T/C is 90 % of control under setting [21]; 96 % of control (dose: 200.0 mg/kg/injection, schedule: Q04DX002 (ip), vehicle: other); 90 % of control under setting [22].
For `O=C(O)c1cc(/C=C/c2ccccc2)ccc1[N+](=O)[O-]`, the T/C reads like this: under setting [15], 103 % of control; under setting [16], 97 % of control; (dose: 400.0 mg/kg/injection, schedule: Q04DX003 (ip), vehicle: saline) 100 % of control.
With `COc1ccc(C2Nc3ccccc3NC3CC(C)(C)CC(=O)C32)cc1` (configuration not stated), the T/C was 120 % of control under setting [3], 98 % of control under setting [4] and 109 % of control under setting [5].
On to `CCCNC(C)=O`, for which the T/C was 102 % of control under setting [1]; 101 % of control under setting [2]; 91 % of control (dose: 400.0 mg/kg/injection, schedule: Q01DX009 (ip), vehicle: saline).
As for `CCCCN1CCCC(OC(=O)N(C)C)C1` (configuration not stated), the T/C (dose: 25.0 mg/kg/injection, schedule: Q04DX002 (ip), vehicle: saline) is 105 % of control; the T/C (dose: 50.0 mg/kg/injection, schedule: Q04DX002 (ip), vehicle: saline) was 102 % of control; the T/C (dose: 100.0 mg/kg/injection, schedule: Q04DX002 (ip), vehicle: saline) is 97 % of control.
As to `CC1(C)CN(Cc2ccc(Cl)cc2)C1=O`, the T/C was 97 % of control (dose: 44.0 mg/kg/injection, schedule: Q01DX001 (ip), vehicle: other); 90 % of control (dose: 44.0 mg/kg/injection, schedule: Q01DX009 (ip), vehicle: saline with Tween-80); 96 % of control (dose: 44.0 mg/kg/injection, schedule: Q04DX003 (ip), vehicle: other); 154 % of control (dose: 50.0 mg/kg/injection, schedule: Q04DX002 (ip), vehicle: other); 100 % of control (dose: 66.0 mg/kg/injection, schedule: Q01DX001 (ip), vehicle: other); 89 % of control (dose: 66.0 mg/kg/injection, schedule: Q01DX009 (ip), vehicle: saline with Tween-80). For the same compound, the T/C (dose: 66.0 mg/kg/injection, schedule: Q04DX003 (ip), vehicle: other) is 101 % of control; the T/C (dose: 100.0 mg/kg/injection, schedule: Q01DX001 (ip), vehicle: other) is 96 % of control; the T/C under setting [20] is 91 % of control; the T/C under setting [21] was 92 % of control and 113 % of control; the T/C (dose: 100.0 mg/kg/injection, schedule: Q04DX003 (ip), vehicle: other) was 100 % of control; the T/C (dose: 150.0 mg/kg/injection, schedule: Q01DX001 (ip), vehicle: other) was 98 % of control. For the same compound, the T/C runs as follows: (dose: 150.0 mg/kg/injection, schedule: Q01DX009 (ip), vehicle: saline with Tween-80) 92 % of control; (dose: 150.0 mg/kg/injection, schedule: Q04DX003 (ip), vehicle: other) 103 % of control; (dose: 225.0 mg/kg/injection, schedule: Q01DX001 (ip), vehicle: other) 100 % of control; (dose: 225.0 mg/kg/injection, schedule: Q01DX009 (ip), vehicle: saline with Tween-80) 93 % of control; (dose: 225.0 mg/kg/injection, schedule: Q04DX003 (ip), vehicle: other) 96 % of control; under setting [22], 95 % of control and 103 % of control.
